Experimental data taken from article PMC8058344, “ARIH1 signaling promotes anti-tumor immunity by targeting PD-L1 for proteasomal degradation” (Nature Communications, 2021).

How the values were obtained:
[1] = biological target: CDK6 (Homo sapiens, UniProt Q00534); experiment: In vitro kinase specificity profiling; type: biochemical
[2] = biological target: EGFR L858R (Homo sapiens, UniProt P00533, L858R); experiment: In vitro kinase specificity profiling; type: biochemical
[3] = system: PD-L1 in U937 cells; experiment: PD-L1 levels in U937 cells by western blotting and flow cytometry; type: cell-based, human; conditions: western blotting and flow cytometry, 10 μM, 12 h
Protocol: Fig. 1 EGFR inhibitors were screened to reduce membrane PD-L1 levels. a High-throughput screening of 2125 FDA-approved drugs or drug candidates. U937 cells were incubated with IFNγ (100 ng/mL) for 48 h, treated with the drugs at 10 μM for 12 h. Ruxolitinib (Rux) was used as a positive control. The hit compounds that induced the decrease of PD-L1 levels are shown in blue. The depth of blue represents decreased level of PD-L1. The heatmap represents the targeted pathways obtained from the high-throughput screening, based upon decreased membrane PD-L1 level detected by flow cytometry. b Immunoblotting of PD-L1 in U937 cells treated with ES-072 (ES) or AZD9291 (AZD) at indicated concentrations for 12 h. ES and AZD are EGFR inhibitors. c, d Median fluorescence intensity (MFI) (c) and relative quantification (d) of PD-L1 in U937 cells treated with 10 μM ES-072 or 10 μM AZD9291 for 12 h. Data represent means ± SEM, n = 18, 6 independent repeats, ****P < 0.0001. e–g Immunoblotting (e, f) and flow cytometry (g) analysis of PD-L1 levels in U937 cells treated with 10 μM ES-072 or 10 μM AZD9291 for the indicated times. h, i Immunoblottings (h) of PD-L1 and β-TrCP, relative quantification (i) of PD-L1 MFI in H1975 cells transfected with non-targeting siRNA (si-CTRL) or β-TrCP siRNAs (si-β-TrCP) and treated with or without 10 μM ES-072/AZD9291 for 12 h. Data represent means ± SEM, n = 9, 3 independent repeats, NS: no significant; ****P < 0.0001. j–l Immunoblotting (j) and flow cytometry analysis (k) with relative quantification (l) of PD-L1 in H1975 cells treated with 10 μM ES-072 or AZD9291, and/or 5 μM LY2090314 (LY) for 12 h. LY is a GSK3 inhibitor. […]
For western blot analysis, cells were collected and washed with PBS, then lysed in radioimmunoprecipitation assay (RIPA) buffer (1% Triton X-100, 100 mM Tris-HCl pH 8.8, 100 mM NaCl, 0.5 mM EDTA). […] The supernatant was collected and the protein concentration was measured by bicinchoninic acid reaction. […] Signals were detected using chemiluminescence reagents (#4AW001-500, 4A649 Biotech, Co.). […]

Sequence of CDK6 (Q00534 whole entry, species assumed): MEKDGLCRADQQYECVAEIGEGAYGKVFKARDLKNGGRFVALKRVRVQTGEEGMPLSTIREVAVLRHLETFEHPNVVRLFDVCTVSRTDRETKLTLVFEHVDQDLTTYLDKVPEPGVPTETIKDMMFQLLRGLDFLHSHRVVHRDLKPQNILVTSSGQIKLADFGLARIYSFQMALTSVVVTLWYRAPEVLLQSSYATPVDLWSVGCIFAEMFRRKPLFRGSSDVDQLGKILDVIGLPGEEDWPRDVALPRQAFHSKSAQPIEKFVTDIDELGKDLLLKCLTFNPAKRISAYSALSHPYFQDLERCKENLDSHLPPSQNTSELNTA
Sequence of CDK6 (P30281 whole entry partner, species assumed): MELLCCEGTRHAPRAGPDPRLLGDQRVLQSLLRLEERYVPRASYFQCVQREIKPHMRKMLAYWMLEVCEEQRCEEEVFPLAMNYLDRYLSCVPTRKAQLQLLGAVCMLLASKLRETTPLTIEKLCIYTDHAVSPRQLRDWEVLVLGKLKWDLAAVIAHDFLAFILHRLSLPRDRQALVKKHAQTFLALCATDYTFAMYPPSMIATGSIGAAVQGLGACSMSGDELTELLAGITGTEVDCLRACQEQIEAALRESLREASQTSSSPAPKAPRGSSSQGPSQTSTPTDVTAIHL
Sequence of EGFR L858R (P00533 25-1210 L858R): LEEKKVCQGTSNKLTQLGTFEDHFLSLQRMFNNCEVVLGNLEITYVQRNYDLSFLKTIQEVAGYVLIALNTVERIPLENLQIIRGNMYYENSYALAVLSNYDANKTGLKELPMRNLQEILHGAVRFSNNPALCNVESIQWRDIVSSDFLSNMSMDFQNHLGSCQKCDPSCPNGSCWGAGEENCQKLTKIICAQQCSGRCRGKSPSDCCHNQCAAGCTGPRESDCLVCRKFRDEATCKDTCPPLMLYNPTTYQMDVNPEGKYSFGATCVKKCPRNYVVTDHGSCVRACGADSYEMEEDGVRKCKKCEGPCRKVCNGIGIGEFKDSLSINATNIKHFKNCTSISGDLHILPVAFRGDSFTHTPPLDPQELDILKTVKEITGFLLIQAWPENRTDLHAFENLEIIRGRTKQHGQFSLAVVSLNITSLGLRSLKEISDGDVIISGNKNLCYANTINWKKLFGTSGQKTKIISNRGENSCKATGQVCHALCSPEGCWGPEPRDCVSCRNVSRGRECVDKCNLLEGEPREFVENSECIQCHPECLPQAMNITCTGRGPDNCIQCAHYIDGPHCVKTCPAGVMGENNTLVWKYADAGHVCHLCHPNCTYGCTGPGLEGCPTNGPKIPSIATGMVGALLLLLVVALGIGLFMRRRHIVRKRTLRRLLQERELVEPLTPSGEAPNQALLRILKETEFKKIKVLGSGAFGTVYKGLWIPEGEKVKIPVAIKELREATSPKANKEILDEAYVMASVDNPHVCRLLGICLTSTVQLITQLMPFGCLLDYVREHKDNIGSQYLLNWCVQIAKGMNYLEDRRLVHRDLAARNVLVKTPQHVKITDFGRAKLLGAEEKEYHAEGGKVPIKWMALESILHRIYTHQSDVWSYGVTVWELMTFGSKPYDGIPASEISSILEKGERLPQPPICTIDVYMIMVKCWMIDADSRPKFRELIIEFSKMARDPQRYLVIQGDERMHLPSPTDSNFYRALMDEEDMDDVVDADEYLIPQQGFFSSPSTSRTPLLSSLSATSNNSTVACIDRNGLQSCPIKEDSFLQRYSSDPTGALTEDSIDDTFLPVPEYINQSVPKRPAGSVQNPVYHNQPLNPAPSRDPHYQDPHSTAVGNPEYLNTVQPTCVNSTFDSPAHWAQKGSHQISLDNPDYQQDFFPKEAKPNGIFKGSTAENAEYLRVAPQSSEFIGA

With `C=CC(=O)Nc1cccc(Nc2nc(Nc3ccc(N4CCN(C)CC4)nc3OC)ncc2C(F)(F)F)c1` [ES-072] the IC50 [1] was greater than 10000 nM, the IC50 [2] was 2.7 nM and the “IFNγ-induced membranal PD-L1 levels” value [3] was “dramatically reduced”.
